Experimental data from US8716440B2, “Method of liberating and recovering peptide” (Sysmex Corporation, priority 2011, dated 2014).
Residues, ends and D or L forms follow the SMILES beside them.

Assays:
[1] = biological target: T1, human serum albumin (HSA) (Homo sapiens, UniProt P02768); assay: Fluorescence titration method, Kd between HSA and peptide; assay type: binding; settings: solution in ultrapure water: ACTH partial peptide 34 μM, TMR-ACTH partial peptide 6 μM, HSA 600 μM
T1 construct: purchased Sigma-Aldrich Japan Inc
T1 sequence (P02768 25-609): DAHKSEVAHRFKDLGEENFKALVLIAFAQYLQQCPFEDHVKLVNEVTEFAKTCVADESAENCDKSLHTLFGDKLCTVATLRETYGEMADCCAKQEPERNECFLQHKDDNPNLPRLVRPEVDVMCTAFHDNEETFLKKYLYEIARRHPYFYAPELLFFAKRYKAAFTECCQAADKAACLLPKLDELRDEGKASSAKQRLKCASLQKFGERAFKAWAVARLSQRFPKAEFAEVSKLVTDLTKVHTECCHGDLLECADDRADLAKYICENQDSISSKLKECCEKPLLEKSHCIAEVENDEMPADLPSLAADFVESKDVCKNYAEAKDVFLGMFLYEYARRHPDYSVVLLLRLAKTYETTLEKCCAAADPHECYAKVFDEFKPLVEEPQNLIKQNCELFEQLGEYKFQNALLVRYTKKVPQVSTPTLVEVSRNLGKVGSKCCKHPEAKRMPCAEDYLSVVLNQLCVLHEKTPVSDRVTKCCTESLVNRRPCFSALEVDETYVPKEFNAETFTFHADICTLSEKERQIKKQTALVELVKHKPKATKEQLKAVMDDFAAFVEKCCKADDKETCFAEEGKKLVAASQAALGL
Description: The ACTH is a basic peptide. The used albumin was human serum albumin (HSA, Sigma-Aldrich Japan Inc.).

[2] = biological target: T2, bovine serum albumin (BSA) (Bos taurus, UniProt P02769); assay: Fluorescence titration method, Kd between BSA and peptide; assay type: binding
T2 construct: purchased Sigma-Aldrich Japan Inc
T2 sequence (P02769 25-607): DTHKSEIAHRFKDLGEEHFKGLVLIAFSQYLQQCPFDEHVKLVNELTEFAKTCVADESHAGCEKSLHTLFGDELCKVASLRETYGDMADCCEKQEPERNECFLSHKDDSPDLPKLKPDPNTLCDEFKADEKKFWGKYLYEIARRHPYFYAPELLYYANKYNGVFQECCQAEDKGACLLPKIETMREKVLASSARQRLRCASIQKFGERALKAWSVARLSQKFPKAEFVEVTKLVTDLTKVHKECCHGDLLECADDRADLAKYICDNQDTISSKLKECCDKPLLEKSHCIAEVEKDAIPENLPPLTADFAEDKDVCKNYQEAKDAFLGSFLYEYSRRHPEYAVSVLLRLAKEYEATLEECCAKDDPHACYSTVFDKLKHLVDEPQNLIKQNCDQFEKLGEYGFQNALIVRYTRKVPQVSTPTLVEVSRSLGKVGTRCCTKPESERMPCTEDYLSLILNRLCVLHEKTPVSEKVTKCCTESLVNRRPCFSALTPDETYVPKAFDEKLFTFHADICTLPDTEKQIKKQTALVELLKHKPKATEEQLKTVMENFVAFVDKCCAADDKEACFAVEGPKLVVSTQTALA
Description: FITC-SA21 (Biologica Co, Ltd.) in which SA21 consisting of 18 amino acids was labeled with fluorescein isothiocyanate (FITC) (a green fluorescent dye) was used as a peptide. The SA21 is an acidic peptide. The used albumin was BSA (Sigma-Aldrich Japan Inc.).

Row | SMILES | fraction of peptide forming a complex with the HSA [1] | Kd ([2]; fluorescence titration, read-out: Kd value between the BSA and FITC-SA21) | fraction of FITC-SA21 forming a complex with albumin ([2]; solution in ultrapure water: FITC-SA21 43 (M, BSA 100 (M)), printed as complex with the HSA) | affinity of binding to BSA relative to affinity of binding between the HSA and ACTH partial peptide ([2]; times stronger than HSA/ACTH partial peptide binding)
1 | CSCC[C@H](NC(=O)[C@H](CO)NC(=O)[C@H](Cc1ccc(O)cc1)NC(=O)[C@H](CO)NC(=O)c1ccc2c(c1)C(=O)OC21c2ccc(N(C)C)cc2Oc2cc(N(C)C)ccc21)C(=O)N[C@@H](CCC(=O)O)C(=O)N[C@@H](Cc1c[nH]cn1)C(=O)N[C@@H](Cc1ccccc1)C(=O)N[C@@H](CCCNC(=N)N)C(=O)N[C@@H](Cc1c[nH]c2ccccc12)C(=O)NCC(=O)N[C@@H](CCCCN)C(=O)N1CCC[C@H]1C(=O)N[C@H](C(=O)NCC(=O)N[C@@H](CCCCN)C(=O)N[C@@H](CCCCN)C(=O)N[C@@H](CCCNC(=N)N)C(=O)N[C@@H](CCCNC(=N)N)C(=O)N1CCC[C@H]1C(=O)N[C@H](C(=O)N[C@@H](CCCCN)C(=O)N[C@H](C(=O)N[C@@H](Cc1ccc(O)cc1)C(=O)N1CCC[C@H]1C(=O)O)C(C)C)C(C)C)C(C)C [TMR-ACTH partial peptide] | 98.9% |  |  | 
2 | CC[C@H](C)[C@H](NC(=O)[C@H](CC(C)C)NC(=O)[C@H](CCCNC(=N)N)NC(=S)Nc1ccc2c(c1)C(=O)OC21c2ccc(O)cc2Oc2cc(O)ccc21)C(=O)N[C@@H](CCC(=O)O)C(=O)N[C@@H](CC(=O)O)C(=O)N[C@H](C(=O)N[C@H]1CSSC[C@@H](C(=O)N[C@@H](CC(C)C)C(=O)N[C@@H](Cc2c[nH]c3ccccc23)C(=O)N[C@@H](CCC(=O)O)C(=O)N[C@@H](CC(=O)O)C(=O)N[C@@H](CC(=O)O)C(N)=O)NC(=O)CNC(=O)[C@H](Cc2c[nH]c3ccccc23)NC(=O)[C@H](CCCNC(=N)N)NC(=O)[C@@H]2CCCN2C(=O)[C@H](CC(C)C)NC1=O)[C@@H](C)CC [FITC-SA21] (HELM PEPTIDE1{[O=C1OC2(c3ccc(O)cc3Oc3cc(O)ccc32)c2ccc(NC(=S)[*:2])cc21].R.L.I.E.D.I.C.L.P.R.W.G.C.L.W.E.D.D.[am]}$PEPTIDE1,PEPTIDE1,8:R3-14:R3$$$V2.0; N-terminus and C-terminus assumed) |  | ≤ 1000 nM | 98.3% | 6 times
